In US10961202B2, “Bis-benzimidazole compounds and methods of using the same” (THE SCRIPPS RESEARCH INSTITUTE, priority 2017, dated 2021):

Tests used:
[1] = tested on: MBNL1 exon 5 inclusion in DM1 myotubes; assay: Myotube splicing rescue assay (MBNL1 exon 5 inclusion); format: cell-based, human; conditions: 48-hour incubation
r(CUG)12-MBNL1 complex = assay: Inhibition of the r(CUG)12-MBNL1 complex measured by TR-FRET; format: biochemical; conditions: Table M; 80 nM RNA, 60 nM MBNL1-His6

Row | Compound | MBNL1 % splicing rescue at 10 μM [1] [%] | IC50 (r(CUG)12-MBNL1 complex) [µM] | MBNL1 % splicing rescue at 1 μM [1] [%] | MBNL1 % splicing rescue at 5 μM [1] [%]
1 | COc1cc(-c2nc3ccc(OCCCN(C)C)cc3[nH]2)c(OCc2ccccc2)cc1-c1nc2cc(OCCCN(C)C)ccc2[nH]1 [Compound 307, 3-((2-(2-(benzyloxy)-4-(5-(3-(dimethylamino)propoxy)-1H-benzo[d]imidazol-2-yl)-5-methoxyphenyl)-1H-benzo[d]imidazol-6-yl)oxy)-N,N-dimethylpropan-1-amine] | 18.1 | 15.8 |  | 
2 | COc1cc(-c2nc3ccc(OCCCN(C)C)cc3[nH]2)c(O)cc1-c1nc2cc(OCCCN(C)C)ccc2[nH]1 [Compound 308] | −24.4 | 1.8 |  | 
3 | CCOc1cc(-c2nc3cc(OCCCN(C)C)ccc3[nH]2)c(OCC)cc1-c1nc2cc(OCCCN(C)C)ccc2[nH]1 [Compound 314, (3-[[2-(4-[5-[3-(dimethylamino)propoxy]-1H-1,3-benzodiazol-2-yl]-2,5-diethoxyphenyl)-1H-1,3-benzodiazol-5-yl]oxy]propyl)dimethylamine] | 22.5 | 19.8 |  | 
4 | CN1CCC(COc2ccc3nc(-c4ccc(-c5nc6ccc(OCC7CCN(C)CC7)cc6[nH]5)c(F)c4)[nH]c3c2)CC1 [Compound 315] | 88.4 | 6.1 |  | 
5 | CN(C)CCCOc1ccc2[nH]c(-c3ccc(-c4nc5cc(OCCCN(C)C)ccc5[nH]4)c4c3OCCO4)nc2c1 [Compound 316] | 87.1 | 20.7 |  | 
6 | C#CCCCCN(C)CCNC(=O)CCCOc1ccc2[nH]c(-c3ccc(-c4nc5cc(OCCCN(C)C)ccc5[nH]4)cc3)nc2c1 [Compound 320] | 88.2 | 16.7 |  | 
7 | CN1CCN(c2ccc(-c3nc4cc(-c5ccc6[nH]c(-c7ccc(N8CCN(C)CC8)cc7)nc6c5)ccc4[nH]3)cc2)CC1 [Compound 334] |  | 14.2 | 73.1 | 
8 | CN1CCC(COc2ccc(-c3nc4cc(-c5ccc6[nH]c(-c7ccc(OCC8CCN(C)CC8)cc7)nc6c5)ccc4[nH]3)cc2)CC1 [Compound 336] | 77.0 | 8.03 | 59.0 | 
9 | CN1CCN(Cc2ccc(-c3nc4cc(-c5ccc6[nH]c(-c7ccc(CN8CCN(C)CC8)cc7)nc6c5)ccc4[nH]3)cc2)CC1 [Compound 337] | 73.3 | 31.9 | 57.2 | 
10 | CN1CCC(NC(=O)c2ccc(-c3nc4cc(-c5ccc6[nH]c(-c7ccc(C(=O)NC8CCN(C)CC8)cc7)nc6c5)ccc4[nH]3)cc2)CC1 [Compound 338] | −5.3 | 4.56 | 7.8 | 
11 | CN1CC[C@@H](NC(=O)c2ccc(-c3nc4cc(-c5ccc6[nH]c(-c7ccc(C(=O)N[C@@H]8CCN(C)C8)cc7)nc6c5)ccc4[nH]3)cc2)C1 [Compound 339] | 1.8 | 5.96 | −3.2 | 
12 | CN1CCC(CNC(=O)c2ccc(-c3nc4cc(-c5ccc6[nH]c(-c7ccc(C(=O)NCC8CCN(C)CC8)cc7)nc6c5)ccc4[nH]3)cc2)CC1 [Compound 340] | −0.4 | 6.17 | −3.4 | 
13 | c1cc(-c2nc3cc(-c4ccc5[nH]c(-c6ccc(OCCN7CCCC7)cc6)nc5c4)ccc3[nH]2)ccc1OCCN1CCCC1 [Compound 347] | 98.1 | 13.5 | 78.9 | 
14 | CN(C)CCCOc1ccc(-c2nc3cc(-c4ccc5[nH]c(-c6ccc(O)cc6)nc5c4)ccc3[nH]2)cc1 [Compound 348] | 75.3 | 16.8 | 75.3 | 
15 | c1cc(-c2nc3cc(-c4ccc5[nH]c(-c6ccc(OCCN7CCCCC7)cc6)nc5c4)ccc3[nH]2)ccc1OCCN1CCCCC1 [Compound 350] |  | 16.9 | 47.2 | 
16 | c1ccc(COc2ccc(-c3nc4cc(-c5ccc6[nH]c(-c7ccc(OCc8ccccn8)cc7)nc6c5)ccc4[nH]3)cc2)nc1 [Compound 352] | 9.6 | 25.8 | 3.1 | 

Row | Compound | MBNL1 % splicing rescue at 10 μM [1] [%] | IC50 (r(CUG)12-MBNL1 complex) [µM] | MBNL1 % splicing rescue at 1 μM [1] [%] | MBNL1 % splicing rescue at 5 μM [1] [%]
17 | CCN(CC)CCOc1ccc(-c2nc3cc(-c4ccc5[nH]c(-c6ccc(OCCN(CC)CC)cc6)nc5c4)ccc3[nH]2)cc1 [Compound 353] |  | 13.3 | 7.5 | 
18 | CN1CCC[C@H]1COc1ccc(-c2nc3cc(-c4ccc5[nH]c(-c6ccc(OC[C@@H]7CCCN7C)cc6)nc5c4)ccc3[nH]2)cc1 [Compound 356] | 59.2 | 30.4 | 43.7 | 
19 | CN1CCC[C@H]1COc1ccc(-c2nc3cc(-c4ccc5[nH]c(-c6ccc(O)cc6)nc5c4)ccc3[nH]2)cc1 [Compound 357] | 66.0 | 15.1 | 1.1 | 
20 | CN1CCCCC1COc1ccc(-c2nc3cc(-c4ccc5[nH]c(-c6ccc(O)cc6)nc5c4)ccc3[nH]2)cc1 (stereo not drawn) [Compound 358] | 74.6 | 19.2 | 12.4 | 
21 | CN(C)CCCCCOc1ccc(-c2nc3cc(-c4ccc5[nH]c(-c6ccc(OCCCCCN(C)C)cc6)nc5c4)ccc3[nH]2)cc1 [Compound 371] | 72.4 | 12.8 | 79.7 | 
22 | CN(C)CCNC(=O)c1ccc(-c2nc3cc(-c4ccc5[nH]c(-c6ccc(SCCN(C)C)cc6)nc5c4)ccc3[nH]2)cc1 [Compound 384] | 93.9 | 10.1 |  | 
23 | CN(C)CCCNC(=O)c1ccc(-c2nc3cc(-c4ccc5[nH]c(-c6ccc(C(=O)NCCCN(C)C)cc6)nc5c4)ccc3[nH]2)cc1 [Compound 393] | 17.1 | 7.48 |  | 
24 | C#CCCCCN(C)CCNC(=O)c1ccc(-c2nc3cc(-c4ccc5[nH]c(-c6ccc(C(=O)NCCN(C)C)cc6)nc5c4)ccc3[nH]2)cc1 [Compound 401, N-(2-(dimethylamino)ethyl)-4-(2′-(4-((2-(hex-5-yn-1-yl(methyl)amino)ethyl)carbamoyl)phenyl)-1H,1′H-[5,5′-bibenzo[d]imidazol]-2-yl)benzamide] |  | 10.6 |  | −11.3
25 | CC(=O)NCCCn1cc(CCCCN(C)CCNC(=O)c2ccc(-c3nc4cc(-c5ccc6[nH]c(-c7ccc(C(=O)NCCN(C)C)cc7)nc6c5)ccc4[nH]3)cc2)nn1 [Compound 402] |  | 10.9 |  | −33.8
26 | C#CCCCCN(C)CCNC(=O)c1ccc(-c2nc3cc(-c4ccc5[nH]c(-c6ccc(OCCCN(C)C)cc6)nc5c4)ccc3[nH]2)cc1 [Compound 403] | 90.5 | 5.6 |  | 
27 | O=C(NCCN1CCN(CCNC(=O)c2ccc3nc(-c4ccc(-c5nc6ccc(C(=O)NCCN7CCCCC7)cc6[nH]5)cc4)[nH]c3c2)CC1)NCCN1CCN(CCNC(=O)c2ccc3nc(-c4ccc(-c5nc6ccc(C(=O)NCCN7CCCCC7)cc6[nH]5)cc4)[nH]c3c2)CC1 [Compound 406, N,N′-((((carbonylbis(azanediyl))bis(ethane-2,1-diyl))bis(piperazine-4,1-diyl))bis(ethane-2,1-diyl))bis(2-(4-(6-((2-(piperidin-1-yl)ethyl)carbamoyl)-1H-benzo[d]imidazol-2-yl)phenyl)-1H-benzo[d]imidazole-6-carboxamide)] | 54.3 | 3.03 | 9.4 | 
28 | CN(C)CCNC(=O)c1ccc(-c2nc3cc(-c4ccc5[nH]c(-c6ccc(C(=O)NCCN(C)CCCCc7cn(CCCNC(=O)CCC(=O)NCCCn8cc(CCCCN(C)CCNC(=O)c9ccc(-c%10nc%11cc(-c%12ccc%13[nH]c(-c%14ccc(C(=O)NCCN(C)C)cc%14)nc%13c%12)ccc%11[nH]%10)cc9)nn8)nn7)cc6)nc5c4)ccc3[nH]2)cc1 [Compound 408] |  | 0.51 | 3.9 | 
29 | CN(C)CCCOc1ccc(-c2nc3cc(-c4ccc5[nH]c(-c6ccc(C(=O)NCCCn7cc(COCCOCCN(C)C(=O)c8ccc(-c9nc%10cc(-c%11ccc%12[nH]c(-c%13ccc(C(=O)NCCN(C)C)cc%13)nc%12c%11)ccc%10[nH]9)cc8)nn7)cc6)nc5c4)ccc3[nH]2)cc1 [Compound 458] |  | 20.5 |  | −14.7
30 | CN(C)CCCOc1ccc(-c2nc3cc(-c4ccc5[nH]c(-c6ccc(C(=O)NCCCn7cc(COCCOCCOCCOCCN(C)C(=O)c8ccc(-c9nc%10cc(-c%11ccc%12[nH]c(-c%13ccc(C(=O)NCCN(C)C)cc%13)nc%12c%11)ccc%10[nH]9)cc8)nn7)cc6)nc5c4)ccc3[nH]2)cc1 [Compound 459] |  | 27.3 |  | −2.6
31 | C[C@@H](NC(=O)CNCCCn1cc(CCCCN(C)CCNC(=O)c2ccc(-c3nc4cc(-c5ccc6[nH]c(-c7ccc(C(=O)NCCN(C)C)cc7)nc6c5)ccc4[nH]3)cc2)nn1)C(=O)N[C@H](C)C(=O)N[C@H](C)C(=O)N[C@H](C)C(=O)N(CCCn1cc(CCCCN(C)CCNC(=O)c2ccc(-c3nc4cc(-c5ccc6[nH]c(-c7ccc(C(=O)NCCN(C)C)cc7)nc6c5)ccc4[nH]3)cc2)nn1)CC(N)=O [Compound 460] |  | 1.3 |  | −21.0
